Read-outs that look alike come from different tables or passages of the source.
Tests used:
[1] = RRCK passive permeability; details: dog, MDCK
[2] = Metabolic stability in cryopreserved human hepatocytes
SARS-CoV-2 PL^pro = SARS-CoV-2 PL^pro (Severe acute respiratory syndrome coronavirus 2, UniProt P0DTD1); assay: PLpro enzymatic assay (Z-RLRGG-AMC substrate cleavage); format: biochemical; details: geometric mean of at least three replicates
SARS-CoV-2 = assay: microbe, parasite or virus in culture; format: cell-based
in vitro [3] = details: human, hepatocytes
in vitro [4] = details: dog, MDCK
[5] = Severe acute respiratory syndrome coronavirus 2, Vero C1008, read-out: SARS-CoV-2 Vero E6 EC50 (nM)*

Compound	Papp [1]	hepatocyte CLint [2]	Ki (SARS-CoV-2 PL^pro)	EC50 (SARS-CoV-2; [5])	hepatocyte CLint (in vitro [3])	Papp (in vitro [4])	EC50 (SARS-CoV-2; Severe acute respiratory syndrome coronavirus 2, Vero C1008, read-out: EC50, cytopathic effect (CPE))
Cc1ccccc1C(=O)N[C@H](C)c1cc(-c2cnn(C)c2)nc2ccccc12 [Compound 2]	42 ×10⁻⁶ cm/s	13.9 µL/min/1e6 cells	116 nM	1580 nM			
Cc1ccc(N2CCN(C)CC2)cc1C(=O)N[C@H](C)c1cc(-c2cnn(C)c2)nc2ccccc12 [Compound 3]	41.9 ×10⁻⁶ cm/s	12.8 µL/min/1e6 cells		652 nM			
Cc1ccc(N)cc1C(=O)N[C@H](C)c1cccc2ccccc12 [Compound 1]					20.9 µL/min/1e6 cells	45.6 ×10⁻⁶ cm/s	68200 nM

— PMC11364104, “Discovery of SARS-CoV-2 papain-like protease (PL^pro) inhibitors with efficacy in a murine infection model” (Science Advances, 2024)
